Assays:
wild-type C57BL/6 mice [1] = assay: Three-chamber social experiment in wild-type mice; format: in vivo; conditions: wild-type mice, oral ATRA, same administration
Description: Four-week-aged mice were given a low dose (0.1 mg/g) or a high dose (0.3 mg/g) of DSF (Sigma, dissolved in olive oil) every two days for 6 weeks. The control group was only given the solvent olive oil (Aladdin). The body weight of the mice was weighed weekly. After 6 weeks of gastric administration, the test of mouse behavior was started. The brains of the control and DSF mice were dissected and taken. After freezing with liquid nitrogen, the brain tissue was homogenized, and ATRA was quantified by the HPLC-MS/MS method as described hereinafter. A three-chamber social experiment was performed according to previously reported procedures (Sztainberg et al., 2015). Briefly, a transparent acrylic box for social experiment was divided into three chambers of uniform size with removable gates mounted on the partition board. An inverted iron mesh cup was placed in each of the left and right chambers. Two days before the experiment, C57BL/6 mice, which were from different family and whose age was matched with the test mice, were placed in two cups as strange mice for 1 hour each day for accommodation. Test mice were randomized into groups and accommodated to the test chamber for 1 hour before the test started. Each test mouse was placed in the center chamber for 10 minutes for self-exploration, and the chamber door was closed. In the first stage, a strange mouse was randomly placed in the left or right cup (avoiding positional bias), and the inanimate article was placed in the cup on the other side. […] In the second stage, the test mice were kept in the chamber of the strange mouse for 5 minutes, and then another strange mouse was placed in the cup in which the article was previously placed.

[2] = system: mice overexpressing UBE3A; assay: Open field experiment in mice overexpressing UBE3A; format: in vivo; conditions: oral ATRA 3 mg/kg, vs solvent group
Description: (§1) Three-week-aged mice were anesthetized with intraperitoneal injection of pentobarbital (50 mg/kg) and fixed on a locator (Rivend, China). 1 μL of PBS-diluted AAV virus was injected at a rate of 0.2 μL/min on both sides of the PFC region in the mouse brain using a syringe pump (Stoelting). The position of the site injection (relative to the front fontanel): AP, +2 mm; ML, ±0.5 mm; DV, −1.3 mm. The amount of virus injected per injection site was: AAV-SynI-Flag-UBE3A and its mutant T508E, 3×10^9; and AAV-SynI-Flag-EGFP, 1.5×10^9. The needle was held in place for another 3 minutes to prevent virus reflux. The mice were placed on a 37° C. electric blanket until they recovered completely from the anesthesia. 1-2 days after surgery, mice were intraperitoneally injected with 0.5 mg/ml meloxicam (Sigma, 2 mg/kg) to help the mice to relieve pain. Four weeks after surgery, mice were tested for behavior. In the ATRA compensation experiment, one week after the injection of AAV-SynI-Flag-UBE3A virus, mice were orally administered with ATRA (Sigma, dissolved in olive oil, 3 mg/kg) or olive oil for five consecutive days. Behavioral testing was performed 4 weeks after administration.
Mice were randomized into groups and placed in an open field instrument (Med Associates) for 30 minutes. […]

wild-type C57BL/6 mice [3] = assay: Rotating rod experiment in wild-type mice; format: in vivo; conditions: wild-type mice, oral ATRA, same administration
Description: (§2) Four-week-aged mice were given a low dose (0.1 mg/g) or a high dose (0.3 mg/g) of DSF (Sigma, dissolved in olive oil) every two days for 6 weeks. The control group was only given the solvent olive oil (Aladdin). The body weight of the mice was weighed weekly. After 6 weeks of gastric administration, the test of mouse behavior was started. The brains of the control and DSF mice were dissected and taken. After freezing with liquid nitrogen, the brain tissue was homogenized, and ATRA was quantified by the HPLC-MS/MS method as described hereinafter.
After mice were randomized into groups, the motor coordination ability of the mice was recorded using a Rotamex rotarod instrument (Columnbus Instruments). On the same day, the test mice were tested 3 times, each experiment was lasted 5 minutes, and the rotating rod was accelerated from 4 revolutions […]. There were at least 30 minutes between two experiments. The time before the test mice dropped off the rod was automatically recorded by an infrared detection system, and the results of the last test were finally compared.

[4] = system: mice overexpressing UBE3A; assay: Three-chamber social experiment in mice overexpressing UBE3A; format: in vivo; conditions: oral ATRA 3 mg/kg
Description: Three-week-aged mice were anesthetized with intraperitoneal injection of pentobarbital (50 mg/kg) and fixed on a locator (Rivend, China). 1 μL of PBS-diluted AAV virus was injected at a rate of 0.2 μL/min on both sides of the PFC region in the mouse brain using a syringe pump (Stoelting). The position of the site injection (relative to the front fontanel): AP, +2 mm; ML, ±0.5 mm; DV, −1.3 mm. […] The needle was held in place for another 3 minutes to prevent virus reflux. The mice were placed on a 37° C. electric blanket until they recovered completely from the anesthesia. 1-2 days after surgery, mice were intraperitoneally injected with 0.5 mg/ml meloxicam (Sigma, 2 mg/kg) to help the mice to relieve pain. Four weeks after surgery, mice were tested for behavior. […] Behavioral testing was performed 4 weeks after administration.
A three-chamber social experiment was performed according to previously reported procedures (Sztainberg et al., 2015). Briefly, a transparent acrylic box for social experiment was divided into three chambers of uniform size with removable gates mounted on the partition board. An inverted iron mesh cup was placed in each of the left and right chambers. Two days before the experiment, C57BL/6 mice, which were from different family and whose age was matched with the test mice, were placed in two cups as strange mice for 1 hour each day for accommodation. Test mice were randomized into groups and accommodated to the test chamber for 1 hour before the test started. Each test mouse was placed in the center chamber for 10 minutes for self-exploration, and the chamber door was closed. In the first stage, a strange mouse was randomly placed in the left or right cup (avoiding positional bias), and the inanimate article was placed in the cup on the other side. Each test mouse was explored for 10 minutes in the open three-chambers, and the communication time between the test mice and the strange mice or the articles was manually recorded. In the second stage, the test mice were kept in the chamber of the strange mouse for 5 minutes, and then another strange mouse was placed in the cup in which the article was previously placed. The test mice were further explored for 10 minutes, and the communication time between the test mice and the familiar animals or the new animals was manually recorded.
To further verify whether UBE3A overactivation triggered the autism phenotype in mice due to injury in the RA production process, mice injected with UBE3A-bearing AAV virus in PFC were orally administered with oral solvents (olive oil) or ATRA (3 mg/kg), administered five consecutive days per week for a total of four weeks. Then the mice were subjected to behavioral experiments (FIG. 8a).

wild-type C57BL/6 mice [5] = assay: Self-grooming experiment in wild-type mice; format: in vivo; conditions: wild-type mice, oral ATRA, same administration
Description: as §2, with “hereinafter. The mice used in the self-grooming experiment were placed in a cage box filled with a filler having a thickness of about 0.5-1 cm for 10 minutes in advance for accommodation. Then, within 10 minutes, the time of self-grooming in mice was recorded by a double-blind experimenter through a stopwatch.” for “hereinafter.”

[6] = system: mice overexpressing UBE3A; assay: Self-grooming experiment in mice overexpressing UBE3A (AAV in PFC); format: in vivo; conditions: oral ATRA 3 mg/kg, four weeks, compared to oral solvent group
Description: To further verify whether UBE3A overactivation triggered the autism phenotype in mice due to injury in the RA production process, mice injected with UBE3A-bearing AAV virus in PFC were orally administered with oral solvents (olive oil) or ATRA (3 mg/kg), administered five consecutive days per week for a total of four weeks.

[7] = system: mice overexpressing UBE3A; assay: Rotating rod experiment in mice overexpressing UBE3A; format: in vivo; conditions: oral ATRA 3 mg/kg
Description: as §1, with “In the ATRA compensation experiment, one week after the injection of AAV-SynI-Flag-UBE3A virus, mice were orally administered with ATRA (Sigma, dissolved in olive oil, 3 mg/kg) or olive oil for five consecutive days. Behavioral testing was performed 4 weeks after administration.” left out
After mice were randomized into groups, the motor coordination ability of the mice was recorded using a Rotamex rotarod instrument (Columnbus Instruments). […] The time before the test mice dropped off the rod was automatically recorded by an infrared detection system, and the results of the last test were finally compared.

wild-type C57BL/6 mice [8] = assay: Open field experiment in wild-type mice; format: in vivo; conditions: wild-type mice, oral ATRA, same administration
Description: as §2
Mice were randomized into groups and placed in an open field instrument (Med Associates) for 30 minutes. The Ethovision automatic recording software (Noldus) was used to record the time spent by the mouse in the central region (⅓ to ⅔ of length on each side of the region) and to calculate the ratio of the distance walked in the central region to the total distance.

[9] = molecular target: T1, GST-UBE3A and ALDH1A2 proteins (Homo sapiens, UniProt O94788); assay: GST pull-down competition of UBE3A-ALDH1A2 binding; conditions: peptide added in GST pull-down experiment
T1 construct: His6 (C); made in house; host or cells: E. coli BL21
T1 sequence (O94788 1-518): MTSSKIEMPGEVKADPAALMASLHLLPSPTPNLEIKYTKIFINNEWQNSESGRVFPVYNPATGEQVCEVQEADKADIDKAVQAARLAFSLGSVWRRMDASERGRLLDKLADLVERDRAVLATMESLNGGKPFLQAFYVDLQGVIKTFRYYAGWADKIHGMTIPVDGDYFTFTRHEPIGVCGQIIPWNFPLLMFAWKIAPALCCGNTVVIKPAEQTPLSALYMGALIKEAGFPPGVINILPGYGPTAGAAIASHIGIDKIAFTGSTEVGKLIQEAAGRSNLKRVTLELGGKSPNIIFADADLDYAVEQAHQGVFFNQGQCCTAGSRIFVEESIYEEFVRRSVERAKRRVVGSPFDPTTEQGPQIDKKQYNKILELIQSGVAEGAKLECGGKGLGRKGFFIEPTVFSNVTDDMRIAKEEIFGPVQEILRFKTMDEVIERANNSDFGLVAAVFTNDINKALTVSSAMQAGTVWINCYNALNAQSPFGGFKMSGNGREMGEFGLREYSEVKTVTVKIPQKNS
Description: GST, GST-UBE3A and the truncated GST-UBE3A proteins were induced to express in BL21 competent bacterium (NEB) and purified using glutathione agarose (GE Healthcare). ALDH1A1-His6, ALDH1A2-His6 and ALDH1A3-His6 proteins were purified using Ni-NTA agarose (Qiagen). The purified ALDH1A2-His6 and GST-UBE3A proteins were incubated in a pull-down buffer (50 mM Tris-Cl, pH 8.0, 200 mM NaCl, 1 mM EDTA, 1% NP-40, 1 mM DTT, 10 mM MgCl2) at 4° C. for 2 hours. The beads were washed 4 times with the pull-down buffer and analyzed by immunoblotting. The pull-down analysis of other proteins followed the same steps.
Since there was no known substrate for UBE3A to explain the association between the onset of ASD and UBE3A overactivation from a mechanical perspective (Glessner et al., 2009), human UBE3A protein was firstly used as a bait to screen for unknown substrate proteins by yeast two-hybrid method. […] Retinoic acid or RA, as an active metabolite of vitamin A (retinol), is required for the development and growth of higher animals including human. The synthesis of RA is accomplished in two steps, including retinol dehydrogenase (RDH10), which catalyzes retinol into retinal, and retinal dehydrogenase (ALDH1A1, ALDH1A 2, and ALDH1A 3 families which catalyze retinal into retinoic acid). Endogenous or exogenously expressed UBE3A and ALDH1A2 proteins were confirmed to form complexes in HEK-293FT cells by immunoprecipitation experiments (FIG. 2b-c). In immunofluorescence experiments, Flag-tagged and RFP-tagged UBE3A and ALDH1A2 proteins were co-localized in the cytoplasm of […] cell SH-SY5Y (FIG. 2d). The GST pull-down experiment further confirmed that the recombinant proteins UBE3A and ALDH1A2 could bind directly in vitro (FIG. 2e) and bound through the N-terminal (amino acid position of 1-280) of UBE3A (FIG. 2f). Since the ALDH1A2 protein had high sequence homology to other family members of ALDH1A1 and ALDH1A 3, it was further verified that UBE3A could bind directly to ALDH1A1 and ALDH1A3, respectively, in vitro and in vivo (FIG. 2g-j). […]

Compound: CC1=C(/C=C/C(C)=C/C=C/C(C)=C/C(=O)O)C(C)(C)CCC1 [ATRA, all-trans retinoic acid]
- three-chamber social interaction experiment, solvent vs ATRA (wild-type C57BL/6 mice [1]): did not cause any differences
- distance walked in open field [2]: walked more distance
- time in the middle of the open field [2]: less time
- rotating rod experiment, solvent vs ATRA (wild-type C57BL/6 mice [3]): did not cause any differences
- cognitive deficits in social novelty [4]: alleviated
- time interacting with social animals vs non-social articles [4]: nearly twice as much time
- time spent with strange mice vs familiar mice [4]: twice
- social barriers ([4]; compared with solvent group): completely reversed
- self-grooming experiment, solvent vs ATRA (wild-type C57BL/6 mice [5]): did not cause any differences
- time spent on self-grooming behavior [6]: significantly reduced
- sport ability (rotating rod) [7]: did not affect the sport ability
- open field experiment, solvent vs ATRA (wild-type C57BL/6 mice [8]): did not cause any differences

Compound: peptide-3: SEQ ID No: 11 AEALVQSFRKVKQHTKEELKSLQAKDEDKD, targets UBE3A-ALDH1A2 binding region (peptide-3)
- blocking of binding between GST-UBE3A and ALDH1A2 proteins [9]: could block the bonding between GST-UBE3A and ALDH1A2 proteins in different extend

Compound: peptide-2: SEQ ID No: 10 NNAAAIKALELYKINAKLCDPH, targets UBE3A-ALDH1A2 binding region (peptide-2)
- blocking of binding between GST-UBE3A and ALDH1A2 proteins [9]: could block the bonding between GST-UBE3A and ALDH1A2 proteins in different extend

Compound: peptide-1: SEQ ID No: 9 ASRMKRAAAKHLIERYYHQLTEGCG, targets UBE3A-ALDH1A2 binding region (peptide-1)
- blocking of binding between GST-UBE3A and ALDH1A2 proteins [9]: could block the bonding between GST-UBE3A and ALDH1A2 proteins in different extend
